Test results reported in US20240148776A1, “TUMESCENT SOLUTION WITH B VITAMINS” (priority 2022, published 2024).

Legend:
[1] = system: acute Herpes zoster (shingles); settings: cited from earlier work
[2] = system: postherpetic neuralgia (PHN); experiment: Tumescent treatment of patients with established postherpetic neuralgia (PHN); format: in vivo, human; settings: B12 added to TEL[AT] in acute zoster
Description: “Hotspot pain” is the area within the dermatome where the zoster pain is clearly the most intense. […] “Elsewhere pain” is zoster pain that affects areas within the dermatome other than the hotspot.

[3] = Stability of vitamin B12 for injection and of its pink colour; format: physicochemical
Protocol: When Klein placed a purchase order for their first vial of injectable B12, they had no idea that the solution would have a red/pink color. When 10 mg in 10 ml of B12 was added to 1,000 ml of TELTA (1:100 dilution of B12), the result was a TELTAB solution with a distinctive pink color. […] They thought the novel pink color would be memorable and an interesting topic of conversation. […] The next conceptual step was the idea that the pink color of TELTAB might be a clever marketing gimmick, which could distinguish TELTAB from all other bags of saline.

| Compound | reduction of zoster-related intensely painful itching compared to placebo ([1]; 2-week protocol of multiple daily injections) | incidence of PHN [2] | stability of pink pigment over time [3] | stability of nutritional function on exposure to light ([3]; light) | effect on pain of acute Herpes zoster compared to placebo ([1]; B12 1 mg/ml, 2 weeks) |
| --- | --- | --- | --- | --- | --- |
| Cc1ncc(C[n+]2csc(CCO)c2C)c(N)n1 [Undiluted vitamin B1, Thiamine] | 30% | – | – | – | – |
| Cobalamin [B12] | – | reduced the incidence of PHN | does not appear to fade over time | not stable when exposed to light | gradually reduce the pain of acute Herpes zoster |
